Measurements taken from patent US8304238B2, “Cell culture medium and immobilized preparation of cell adhesion protein or peptide” (Nat'l Institute for Environmental Studies, priority 2003, dated 2012).
Where no end group is shown, it is not given here.

Assays:
[1] = system: alveolar type II epithelial cells (T2 cells); experiment: Static and forced stretching culture of T2 cells on MMAC-coated silicone wells with immobilized proteins or peptides; format: cell-based
Protocol: A silicone well coated with MMAC was obtained by pouring 0.5 ml of ethanol solution of 50 μg/ml of MMAC (ISP, International Specialty Products, USA) into a silicone well with a groove of 20 mm×20 mm×10 mm, absorbing excess solution, and conducting air-drying.
Into the silicone wells coated by the method described in Example 1, 10 μg/ml of cell adhesion protein solution of fibronectin (FN), laminin-1 (LN), dissolved in 0.1 M triethanolamine buffer solution of pH 8.8, or 0.25 mg/ml of cell adhesion peptide solution of FIB-1, AG73 was poured respectively, and the reaction was conducted for at least several hours at 37° C. to bind and immobilize these proteins or peptides having cell adhesion activity (see Example 6 described later for particulars of immobilization). Subsequently, alveolar type II epithelial cell (T2 cells) suspension was poured, 5×10^4/cm^2 per unit area, and the culture was started in a CO2 culture apparatus.
T2 cells, 2×10^5/cm^2 per unit area, were seeded on the silicone well wherein the cell adhesion proteins or peptides were immobilized, which had been prepared in an almost same manner as that of Example 2, and static culture was conducted for 1 day. After confirming that the seeded cells confluently spread all over the culture face, horizontal cell stretching was forcibly started at the stretching degree of twenty five percents and at the frequency of 15 times per minute, by using cell culture stretching apparatus (Scholar Tec), and the culture was continued one more day. After the culture was finished, photographs of cell adhesion state were taken with a phase contrast microscope (FIG. 2, top 4 rows).
T2 cells, 5×10^4/cm^2 per unit area, were seeded on the silicone well wherein the cell adhesion proteins or peptides were immobilized, which had been prepared in an almost same manner as that of Example 2, and static culture was conducted for 3 days. T2 cells grew in a manner similar to that shown in FIG. 1, 3d (results are not shown because they are overlapping). Then, the cells were subjected to the same stimuli of forced stretching as in Example 1, and the culture was continued one more day. After the culture was finished, photographs of cell adhesion state were taken with a phase contrast microscope (FIG. 2, middle 4 rows) (FN, 3dC-1dS, LN, 3dC-1dS, FIB-1, 3dC-1dS, and AG-73, 3dC-1dS).
Forced stretching culture was conducted for 3 days in an almost same manner as stretching culture of Example 4. After the culture was finished, photographs of cell adhesion state were taken with a phase contrast microscope (FIG. 2, bottom 4 rows) (FN, 3dC-3dS, LN, 3dC-3dS, FIB-1, 3dC-3dS, and AG-73, 3dC-3dS).

[2] = system: alveolar type II epithelial cells (T2 cells); experiment: Inhibition of T2 cell adhesion to immobilized cell adhesion peptide substrates by heparin treatment; format: cell-based; settings: 24-hour culture
Protocol: 100 μg/ml of heparin solution was poured into a well prepared according to the method in Example 6, wherein the cell adhesion peptides were immobilized, and the incubation was conducted for 2 hours. The heparin solution was removed after heparin bound to the immobilized cell adhesion peptides, and T2 cell suspension was seeded on the well.
It is theoretically shown that after the cell adhesion peptides first bind to heparin and are covered with heparin, the cell adhesion receptors having heparin-like sugar chain (heparan sulfate) present on the cell surface, in other words, syndecan, a protein that belongs to heparan sulfate proteoglycan, cannot bind to the cell adhesion peptides by using the sugar chain part of the heparan sulfate, thereby the cell adhesion is inhibited.

[3] = system: alveolar type II epithelial cells (T2 cells); experiment: Inhibition of T2 cell adhesion by free peptide different from the immobilized peptide substrate; format: cell-based
Method in brief: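 T2 cells cultured on immobilised peptide substrate, with a free peptide differing from the immobilised one added to the medium. Adhesion inhibition read as competition for syndecan binding.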

[4] = system: alveolar type II epithelial cells (T2 cells); settings: known, usual requirement; cited from earlier work
[5] = system: alveolar type II epithelial cells (T2 cells); experiment: Inhibition by free cell adhesion peptides of T2 cell adhesion to coated cell adhesion proteins FN, Col I, LN, VN; format: cell-based; settings: free peptide 0.25 mg/ml; serum-free, 1 day
[6] = system: alveolar type II epithelial cells (T2 cells); experiment: Time course of cell adhesion/spreading of T2 cells on immobilized cell adhesion peptide substrates; format: cell-based; settings: 24-hour culture
Protocol: Culture was conducted by using the cell adhesion peptides immobilized on a well and T2 cells, for 1-24 hours according to the method in Example 8.
As cell adhesion peptides, AG73 was used in B, E and M, FIB-1 was used in C, L and O, A3G72 was used in F, A4G82 was used in G and N, A5G71 was used in H, A5G77 was used in I, hA3G75 was used in J, and hA3G83 was used in K; FN was used as a standard substance in A and D.

[7] = system: alveolar type II epithelial cells (T2 cells); experiment: Binding strength (affinity) of immobilized LN peptides to T2 cells relative to immobilized FIB-1 (mixed immobilization, free FIB-1 competition); format: cell-based; set-up: key to Binding strength to T2 cells, Comprehensive evaluation: AA: extremely strongly binding/adhering; A: strongly binding/adhering; B: intermediately binding/adhering (as the same degree as FIB-1 peptide); C: more weakly binding/adhering than FIB-1 peptide
Method in brief: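 MMAC-coated wells coated with FIB-1 (0.25 mg/ml) mixed with LN peptide (e.g. AG73) at varied ratios; free FIB-1 competition. T2 cells cultured serum-free 1 day; adhesion expressed relative to immobilized FIB-1 (100%). Relative binding strength derived from mixing ratio at transitional midpoint.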

For YAVTGRGDSPAS [reference compound], the “Reorientation of T2 cells under forced stretching” value ([1]; 1 day static, 1 day stretching (1dC-1dS), 25 percent, 15 times per minute) was “spread in an elongated shape to a direction perpendicular to the direction of forced stretching”, the “Change of type II epithelial cells into a shape like type I epithelial cells” value ([1]; 3 days static, 3 days stretching (3dC-3dS)) was “less observed” and the “Inhibition of cell adhesion to immobilized peptide by heparin treatment” value ([2]; 100 μg/ml heparin 2 hours) was “no inhibition”. The “Inhibition degree of cell adhesion, Heparin” value ([2]; immobilized peptide treated with 100 μg/ml heparin 2 hours) was “No”, the “Inhibition by free peptide of T2 cell adhesion to immobilized AG73” value ([3]; AG73 (etc.) immobilized) was “no inhibition occurred” and the “Inhibition by free peptide of T2 cell adhesion to immobilized AG73 and A4G82 peptides” value ([3]; AG73 and A4G82 immobilized) was “could not inhibit”. The “Inhibition by free peptide of T2 cell adhesion to immobilized AG81.2 and AG73T” value ([3]; AG81.2 and AG73T immobilized) was “inhibited the adhesion”, the “Inhibition by free peptide of T2 cell adhesion to immobilized FIB-1” value ([3]; FIB-1 immobilized) was “competitively inhibited” and the “Concentration of free FIB-1 peptide required to inhibit adhesion to FN” value [4] was at least 1 mg/mL. The “Inhibition of adhesion of T2 cells to FN, Col I, LN and VN by free peptide” value [5] was “does not exhibit inhibitory effect”, the “Cell adhesion/spreading on immobilized peptide” value [6] was “almost all cells had finished spreading” and the “Binding strength to T2 cells, Comprehensive evaluation” value ([7]; classification relative to FIB-1 peptide) was “B”. For the same sequence, the “Binding strength to T2 cells, Ratio to FIB-1” value ([7]; inverse of mixing ratio at transitional midpoint, FIB-1 0.25 mg/ml, MMAC-coated well) was “(1)”.
